Results published in ChEMBL document CHEMBL5360555, “Structure-based discovery of novel α-aminoketone derivatives as dual p53-MDM2/MDMX inhibitors for the treatment of cancer” (Eur J Med Chem, 2023).

Legend:
SH-SY5Y [1] = experiment: Antiproliferative activity against human SH-SY5Y cells overexpressing MDMX assessed as cell growth inhibition incubated for 72 hrs by CCK-8 assay; format: functional, cell-based
HCT-116 [2] = experiment: Antiproliferative activity against human HCT-116 cells overexpressing MDM2 assessed as cell growth inhibition incubated for 72 hrs by CCK-8 assay; format: functional, cell-based; details: HCT-116, 72 h
[3] = biological target: E3 ubiquitin-protein ligase Mdm2 (Homo sapiens, UniProt Q00987); experiment: Binding affinity to MDM2 (1 to 118 residues) (unknown origin) assessed as inhibition constant incubated for 1 hr measured by fluorescence polarization assay
[4] = Antiproliferative activity against human HCT116-p53-null cells overexpressing MDMX assessed as cell growth inhibition incubated for 72 hrs by CCK-8 assay; format: functional, cell-based
SJSA-1 = experiment: Antiproliferative activity against human SJSA-1 cells overexpressing MDM2 assessed as cell growth inhibition incubated for 72 hrs by CCK-8 assay; format: functional, cell-based; details: SJSA-1, 72 h
SH-SY5Y [5] = experiment: Antiproliferative activity against human SH-SY5Y cells overexpressing MDMX assessed as cell growth inhibition incubated at 10 uM for 72 hrs by CCK-8 assay relative to control; format: functional
HCT-116 [6] = experiment: Antiproliferative activity against human HCT-116 cells overexpressing MDM2 assessed as cell growth inhibition incubated at 10 uM for 72 hrs by CCK-8 assay relative to control; format: functional
Protein Mdm4 = biological target: T1, Protein Mdm4 (Homo sapiens, UniProt O15151); experiment: Binding affinity to MDMX (1 to 118 residues) (unknown origin) assessed as inhibition constant incubated for 1 hr measured by fluorescence polarization assay
T1 sequence (O15151 whole entry): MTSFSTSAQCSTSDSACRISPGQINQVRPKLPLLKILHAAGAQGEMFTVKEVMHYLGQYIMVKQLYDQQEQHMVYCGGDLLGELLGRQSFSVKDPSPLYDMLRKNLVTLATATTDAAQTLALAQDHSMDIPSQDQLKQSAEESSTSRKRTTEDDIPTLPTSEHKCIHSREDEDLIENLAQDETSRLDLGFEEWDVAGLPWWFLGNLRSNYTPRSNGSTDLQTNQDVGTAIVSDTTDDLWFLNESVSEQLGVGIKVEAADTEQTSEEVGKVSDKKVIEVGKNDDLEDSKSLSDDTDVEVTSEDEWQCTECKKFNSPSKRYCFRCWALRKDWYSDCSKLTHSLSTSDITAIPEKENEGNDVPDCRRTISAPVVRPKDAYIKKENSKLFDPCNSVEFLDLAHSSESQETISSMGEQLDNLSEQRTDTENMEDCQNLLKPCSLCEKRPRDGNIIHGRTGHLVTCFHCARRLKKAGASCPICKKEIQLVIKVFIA

Sequence of E3 ubiquitin-protein ligase Mdm2 (Q00987 whole entry, the tested form may be a part): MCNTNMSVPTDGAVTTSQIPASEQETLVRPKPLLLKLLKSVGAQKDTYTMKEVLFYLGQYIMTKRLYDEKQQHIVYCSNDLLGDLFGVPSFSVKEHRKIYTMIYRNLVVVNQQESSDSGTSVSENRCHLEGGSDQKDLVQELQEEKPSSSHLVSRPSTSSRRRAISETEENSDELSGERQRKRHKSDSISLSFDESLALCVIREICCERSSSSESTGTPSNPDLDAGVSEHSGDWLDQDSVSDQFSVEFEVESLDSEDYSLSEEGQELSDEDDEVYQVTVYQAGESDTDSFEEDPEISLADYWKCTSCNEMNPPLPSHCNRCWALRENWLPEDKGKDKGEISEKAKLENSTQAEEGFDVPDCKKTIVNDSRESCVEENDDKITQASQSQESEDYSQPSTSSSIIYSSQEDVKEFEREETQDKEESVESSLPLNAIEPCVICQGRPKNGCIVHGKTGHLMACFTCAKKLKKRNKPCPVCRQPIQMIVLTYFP

Compound | IC50 (SH-SY5Y [1]) [µM] | IC50 (HCT-116 [2]) [µM] | Ki [3] [µM] | IC50 [4] [µM] | IC50 (SJSA-1) [µM] | inhibition at 10 µM (SH-SY5Y [5]) [%] | inhibition at 10 µM (HCT-116 [6]) [%] | Ki (Protein Mdm4) [µM]
Cc1cc(Cl)cc(NC(C(=O)c2ccc(F)cc2)c2ccc(F)c(Cl)c2)c1 (stereo unspecified) | 18.2 | 18.5 | 19.7 | – | – | – | – | –
O=C(c1ccc(Cl)cc1)C(Nc1cc(F)cc(F)c1)c1ccc(Cl)c(Cl)c1 (stereo unspecified) | 13.1 | 13.5 | 6.86 | – | – | – | – | –
O=C(c1ccc(Cl)cc1)C(Nc1ccc(Cl)c(Cl)c1)c1ccc(Cl)c(Cl)c1 (stereo unspecified) | 14.4 | 12.3 | 4.29 | – | – | – | – | –
O=C(c1ccc(Cl)cc1)C(Nc1ccc(Cl)cc1)c1cc(F)ccc1F (stereo unspecified) | 21.8 | 21.5 | 14.9 | – | – | – | – | –
COc1ccc(NC(C(=O)c2ccc(Cl)cc2)c2ccc(F)cc2Cl)cc1 (stereo unspecified) | 29.3 | 30.1 | 27.8 | – | – | – | – | –
O=C(c1ccc(Cl)cc1)C(Nc1ccc(Cl)cc1)c1ccc(F)c(Cl)c1 (stereo unspecified) | 21.3 | 29.2 | 24.2 | – | – | – | – | –
COC(=O)CCCCC(=O)N(c1ccc(Cl)cc1)C(C(=O)c1ccc(Cl)cc1)c1ccc(F)cc1Cl (stereo unspecified) | 13.7 | 14.1 | 0.82 | 37.2 | 12.3 | – | – | –
O=C(c1ccc(Cl)cc1)C(Nc1cccc(Cl)c1F)c1ccc(Cl)c(Cl)c1 (stereo unspecified) | 11 | 11.1 | 2.13 | – | – | – | – | –
COc1cccc(CC(C(=O)c2ccc(Cl)cc2)C(=O)c2cc(F)ccc2F)c1 (stereo unspecified) | – | – | 14.6 | – | – | 18.3 | 26.3 | –
COC(=O)/C=C/C(=O)N(c1ccc(Cl)cc1)C(C(=O)c1ccc(Cl)cc1)c1ccc(F)cc1Cl (stereo unspecified) | 19.5 | 18.9 | 1.46 | 37.1 | 17.4 | – | – | –
O=C(c1ccc(Cl)cc1)C(c1ccc(F)cc1Cl)N(C(=O)CCC(=O)N1CCN(CCO)CC1)c1ccc(Cl)cc1 (stereo unspecified) | 4.42 | 3.97 | 0.48 | 15.6 | 4.36 | – | – | 11.6
O=C(CCC(=O)N(c1ccc(Cl)cc1)C(C(=O)c1ccc(Cl)cc1)c1ccc(F)cc1Cl)NCCN1CCOCC1 (stereo unspecified) | 5.44 | 7.69 | 0.56 | 28.4 | 6.74 | – | – | 13
O=C(c1ccc(Cl)cc1)C(Nc1cccc(Cl)c1)c1ccc(F)cc1Cl (stereo unspecified) | 14.1 | 16.6 | 6.92 | – | – | – | – | –
COC(=O)CCCC(=O)N(c1ccc(Cl)cc1)C(C(=O)c1ccc(Cl)cc1)c1ccc(F)cc1Cl (stereo unspecified) | 14.2 | 16.1 | 1.15 | 28.2 | 14.9 | – | – | –
O=C(c1ccc(Cl)cc1)C(Cc1ccc(-c2ccccc2)cc1)C(=O)c1cc(F)ccc1F (stereo unspecified) | – | – | 24.5 | – | – | 13.2 | 29.9 | –
O=C(c1ccc(Cl)cc1)C(Cc1cc2ccccc2cn1)C(=O)c1cc(F)ccc1F (stereo unspecified) | – | – | 21.8 | – | – | 9.44 | 36.7 | –
O=C(O)CCC(=O)N(c1ccc(Cl)cc1)C(C(=O)c1ccc(Cl)cc1)c1ccc(F)cc1Cl (stereo unspecified) | 8.13 | 14.2 | 1.07 | 36.4 | 12 | – | – | –
O=C(O)/C=C/C(=O)N(c1ccc(Cl)cc1)C(C(=O)c1ccc(Cl)cc1)c1ccc(F)cc1Cl (stereo unspecified) | 15 | 15.4 | 1.1 | 31.3 | 15.6 | – | – | –
O=C(c1ccccc1)C(Cc1ccccc1)C(=O)c1ccccc1 | – | – | 25.8 | – | – | 9.88 | 11.2 | –
O=C(c1ccc(Cl)cc1)C(Nc1ccc(Cl)cc1)c1cc(F)cc(F)c1 (stereo unspecified) | > 40 | > 40 | 24.7 | – | – | – | – | –
O=C(c1ccc(Cl)cc1)C(Nc1ccc(Cl)cc1)c1ccc(F)cc1Cl (stereo unspecified) | 9.84 | 11.7 | 0.91 | – | – | – | – | –
COc1ccc(C(=O)C(Nc2ccccc2)c2ccccc2)cc1 (stereo unspecified) | > 40 | > 40 | 25.8 | – | – | – | – | –
O=C(c1ccc(Cl)cc1)C(Cc1ccc(Cl)nc1)C(=O)c1cc(F)ccc1F (stereo unspecified) | – | – | 15.3 | – | – | 20.1 | 39.4 | –
O=C(c1ccc(Cl)cc1)C(Cc1ccsc1)C(=O)c1cc(F)ccc1F (stereo unspecified) | – | – | 14 | – | – | 15.3 | 31.8 | –
O=C(c1ccc(F)cc1)C(Nc1ccc(Cl)cc1)c1ccc(Cl)cc1 (stereo unspecified) | 15 | 18.8 | 12.3 | – | – | – | – | –
